Counter-ions that a name gives are not always drawn.
How the values were obtained:
[1] = Metabolic stability in mouse liver microsomes; assay type: in vitro ADME; conditions: 100 μM, 37° C.
Protocol: The objective of the study is to determine the metabolic stability of the compounds in mouse liver microsomes. Brief procedure: metabolic stability of test compounds were carried out using mouse liver microsomes. The final composition of the assay includes test compound 100 μM (dissolved in DMSO), mouse microsomal protein 0.5 mg/mL and cofactors (G-6-P 5.0 mM, G-6-PDH 0.06 U, MgCl2 2.0 mM, NADP+1.0 mM, UDPGA 0.5 mM, PAPS 0.6 mM and GSH 1 mM). The test compounds were incubated at with mouse liver microsomes with cofactors. After 1 h incubation at 37° C., the reaction was stopped by addition of stop solution (ice cold acetonitrile). The samples were centrifuged and supernatants were analysed using LC/MS/MS. The Percent of parent test compounds remaining after 1 h of incubation time was calculated with respect to the peak areas of at time 0.

U-87-MG = experiment: Anti-proliferative activity (GI50); assay type: cell-based; conditions: Homo sapiens, Table 9, Brain, read-out: Anti-proliferative activity (GI50) U-87-MG
Protocol: (§1) Cells were seeded in a 96-well cell culture plates at a concentration of 10,000 cells per well and incubated at 37° C. in CO2 incubator.
(§2) Twenty-four hours later cells were treated with different concentrations (100, 10, 1, 0.1, and 0.01 μM) of compound dissolved in DMSO and incubated for 48 hours. For To measurement, 24 hours after seeding the cells, 20 μL of 3-(4.5-dimethyl-2- thiazolyl)-2,5-diphenyl-2H-tetrazolium (MTT) solution per well was added to the T0 plate and incubated for 3 hours at 37° C. in a CO2 incubator.
(§3) The plate containing cells and test compounds was treated similarly after 48 hours of incubation. After 3 hours of MTT addition, well contents were aspirated carefully followed by addition of 100 μL DMSO per well. Plates were agitated to ensure dissolution of the formazan crystals in DMSO and absorbance was read at 570 nm (A570). […] From the percentage growths a dose response curve was generated and GI50 values were interpolated from the growth curves.

K562 = experiment: Anti-proliferative activity (GI50); assay type: cell-based; conditions: Homo sapiens, K562; Table 9; Leukemia; read-out: Anti-proliferative activity (GI50) K562
Protocol: as §1, §2, §3

Calu-6 = experiment: Anti-proliferative activity (GI50); assay type: cell-based; conditions: Homo sapiens, Calu-6; Table 9; Lung; read-out: Anti-proliferative activity (GI50) Calu-6
Protocol: as §1, §2, §3

MCF-7 = experiment: Anti-proliferative activity (GI50); assay type: cell-based; conditions: Homo sapiens, MCF7; Table 9; Breast; read-out: Anti-proliferative activity (GI50) MCF-7
Protocol: as §1, §2, §3

HCT-116 = experiment: Anti-proliferative activity (GI50); assay type: cell-based; conditions: Homo sapiens, HCT-116; Table 9; Colon; read-out: Anti-proliferative activity (GI50) HCT-116
Protocol: as §1, §2, §3

IMR-32 = experiment: Anti-proliferative activity (GI50); assay type: cell-based; conditions: Homo sapiens, IMR-32; Table 9; Brain; read-out: Anti-proliferative activity (GI50) IMR-32
Protocol: as §1, §2, §3

RPMI-8226 = experiment: Anti-proliferative activity (GI50); assay type: cell-based; conditions: Homo sapiens, RPMI-8226; Table 9; Leukemia; read-out: Anti-proliferative activity (GI50) RPMI-8226
Protocol: as §1, §2, §3

PANC-1 = experiment: Anti-proliferative activity (GI50); assay type: cell-based; conditions: Homo sapiens, PANC-1; Table 9; Pancreas; read-out: Anti-proliferative activity (GI50) PANC-1
Protocol: as §1, §2, §3

Colo-205 = experiment: Anti-proliferative activity (GI50); assay type: cell-based; conditions: Homo sapiens, COLO 205; Table 9; Colon; read-out: Anti-proliferative activity (GI50) Colo-205
Protocol: as §1, §2, §3

Hela-S3 = experiment: Anti-proliferative activity (GI50); assay type: cell-based; conditions: Homo sapiens, HeLa S3; Table 9; Cervix; read-out: Anti-proliferative activity (GI50) Hela-S3
Protocol: as §1, §2, §3

SH-SY-5Y = experiment: Anti-proliferative activity (GI50); assay type: cell-based; conditions: Homo sapiens, SH-SY5Y; Table 9; Brain; read-out: Anti-proliferative activity (GI50) SH-SY-5Y
Protocol: as §1, §2, §3

ACHN = experiment: Anti-proliferative activity (GI50); assay type: cell-based; conditions: Homo sapiens, Table 9, Renal, read-out: Anti-proliferative activity (GI50) ACHN
Protocol: as §1, §2, §3

CYP 2D6 = target: T1, CYP 2D6 (Homo sapiens, UniProt P10635); experiment: Cytochrome-P450 isoforms liability determination; assay type: in vitro ADME; conditions: fluorescence based kit; read-out: CYP liability (IC50 in μM) CYP 2D6
T1 construct: purchased
Protocol: (§4) To determine the test compound liability towards Human cytochrome 450 (hCYP450) Isoforms fluorescence based screening kits.
(§5) Brief procedure: 2× test compounds were prepared by dilution with deionized water. A serial dilution of the test compound was done. 2× solution of known inhibitor were used as a positive control. 40 μL of the 2× solution that is prepared was added to the desired wells. Two replicates were included for every compound. 50 μL of the Master premix (premix of CYP450 Baclosomes, reagents and regenerating system) was dispensed into each well. The plate was incubated for 20 min at room temperature to allow the compounds to interact with the CYP450enzymes. The reaction was started by adding 10 μL of the substrate and NADP^+ mixture. The plate was incubated for the desired amount of time, and then 10 μL of stop reagent was added to each well to quench the reaction. The fluorescence was measured in the fluorescent plate reader at excitation and emission wavelengths as recommended, depending on the substrate used.

CYP 2C9 = target: T2, CYP 2C9 (Homo sapiens, UniProt P11712); experiment: Cytochrome-P450 isoforms liability determination; assay type: in vitro ADME; conditions: fluorescence based kit; read-out: CYP liability (IC50 in μM) CYP 2C9
T2 construct: purchased
Protocol: as §4, §5

CYP 1A2 = target: T3, CYP 1A2 (Homo sapiens, UniProt P05177); experiment: Cytochrome-P450 isoforms liability determination; assay type: in vitro ADME; conditions: fluorescence based kit; read-out: CYP liability (IC50 in μM) CYP 1A2
T3 construct: purchased
T3 sequence (P05177 1-516): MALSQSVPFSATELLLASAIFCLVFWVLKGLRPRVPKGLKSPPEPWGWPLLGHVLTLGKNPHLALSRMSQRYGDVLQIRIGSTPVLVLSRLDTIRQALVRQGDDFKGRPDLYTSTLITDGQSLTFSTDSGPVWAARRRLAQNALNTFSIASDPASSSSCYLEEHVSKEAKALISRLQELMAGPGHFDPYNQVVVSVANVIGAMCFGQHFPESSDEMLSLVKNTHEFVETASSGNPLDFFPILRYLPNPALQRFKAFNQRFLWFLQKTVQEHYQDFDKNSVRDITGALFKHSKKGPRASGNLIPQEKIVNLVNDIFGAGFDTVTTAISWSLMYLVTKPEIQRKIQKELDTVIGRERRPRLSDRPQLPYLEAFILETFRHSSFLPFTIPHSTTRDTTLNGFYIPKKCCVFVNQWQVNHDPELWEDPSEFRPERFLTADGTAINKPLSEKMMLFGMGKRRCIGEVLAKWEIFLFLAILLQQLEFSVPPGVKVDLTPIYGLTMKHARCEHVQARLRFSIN
Protocol: as §4, §5

CYP 2C19 = target: T4, CYP 2C19 (Homo sapiens, UniProt P33261); experiment: Cytochrome-P450 isoforms liability determination; assay type: in vitro ADME; conditions: fluorescence based kit; read-out: CYP liability (IC50 in μM) CYP 2C19
T4 construct: purchased
Protocol: as §4, §5

T2 sequence (P11712 whole entry, canonical isoform): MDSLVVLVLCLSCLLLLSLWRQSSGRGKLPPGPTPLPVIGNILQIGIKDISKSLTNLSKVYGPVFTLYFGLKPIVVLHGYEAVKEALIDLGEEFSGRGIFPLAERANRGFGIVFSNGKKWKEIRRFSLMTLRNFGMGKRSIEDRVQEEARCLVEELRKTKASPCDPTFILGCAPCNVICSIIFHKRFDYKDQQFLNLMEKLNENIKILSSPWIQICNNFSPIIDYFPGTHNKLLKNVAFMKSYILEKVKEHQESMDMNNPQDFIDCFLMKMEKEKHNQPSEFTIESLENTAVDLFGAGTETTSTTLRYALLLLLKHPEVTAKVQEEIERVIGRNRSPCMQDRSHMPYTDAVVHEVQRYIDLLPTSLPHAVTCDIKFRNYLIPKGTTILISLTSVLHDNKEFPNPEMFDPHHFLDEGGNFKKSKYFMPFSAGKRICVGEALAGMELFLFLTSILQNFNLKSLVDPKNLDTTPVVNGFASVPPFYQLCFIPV
T1 sequence (P10635 whole entry, canonical isoform): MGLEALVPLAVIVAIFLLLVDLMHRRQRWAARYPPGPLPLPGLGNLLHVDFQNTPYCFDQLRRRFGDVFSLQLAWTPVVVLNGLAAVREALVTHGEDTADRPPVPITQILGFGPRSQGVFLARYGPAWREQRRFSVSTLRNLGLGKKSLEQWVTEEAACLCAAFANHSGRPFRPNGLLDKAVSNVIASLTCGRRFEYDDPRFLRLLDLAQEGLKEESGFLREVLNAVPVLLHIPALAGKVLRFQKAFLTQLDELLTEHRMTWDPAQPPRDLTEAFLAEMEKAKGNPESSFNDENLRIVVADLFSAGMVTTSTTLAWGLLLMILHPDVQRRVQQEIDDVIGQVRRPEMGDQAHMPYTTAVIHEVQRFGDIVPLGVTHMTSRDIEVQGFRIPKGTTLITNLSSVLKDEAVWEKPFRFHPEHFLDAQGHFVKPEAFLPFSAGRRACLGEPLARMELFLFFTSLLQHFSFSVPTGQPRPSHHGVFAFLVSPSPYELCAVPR
T4 sequence (P33261 whole entry, canonical isoform): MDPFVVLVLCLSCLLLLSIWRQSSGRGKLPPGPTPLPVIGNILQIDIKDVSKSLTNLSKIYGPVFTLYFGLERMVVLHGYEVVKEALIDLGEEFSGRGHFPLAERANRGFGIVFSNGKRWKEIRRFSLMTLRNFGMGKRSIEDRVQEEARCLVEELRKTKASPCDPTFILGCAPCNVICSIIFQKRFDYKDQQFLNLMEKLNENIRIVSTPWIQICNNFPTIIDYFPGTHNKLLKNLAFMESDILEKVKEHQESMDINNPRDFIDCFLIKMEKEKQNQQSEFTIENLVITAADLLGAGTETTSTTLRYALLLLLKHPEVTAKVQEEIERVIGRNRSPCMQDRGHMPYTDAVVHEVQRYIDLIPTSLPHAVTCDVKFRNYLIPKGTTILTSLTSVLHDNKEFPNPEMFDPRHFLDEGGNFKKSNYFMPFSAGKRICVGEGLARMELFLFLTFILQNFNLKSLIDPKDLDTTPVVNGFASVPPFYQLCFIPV

SMILES | % Stable compounds after 1 hr incubation [1] | GI50 (U-87-MG) | GI50 (K562) | GI50 (Calu-6) | GI50 (MCF-7) | GI50 (HCT-116) | GI50 (IMR-32) | GI50 (RPMI-8226) | GI50 (PANC-1) | GI50 (Colo-205) | GI50 (Hela-S3) | GI50 (SH-SY-5Y) | GI50 (ACHN) | IC50 (CYP 2D6) | IC50 (CYP 2C9) | IC50 (CYP 1A2) | IC50 (CYP 2C19)
O=C(NO)c1ccc(Cn2cc(-c3ccc(CN4CCCC4)cc3)nn2)cc1 [Example 8, N-Hydroxy-4-[4-(4-pyrrolidin-1-ylmethyl-phenyl)-[1,2,3]triazol-1-ylmethyl]-benzamide] | 100% | 500 ± 90 nM | 300 ± 60 nM | 600 ± 330 nM | 2600 ± 1260 nM | 100 ± 40 nM | 400 ± 90 nM | 400 ± 300 nM | 1300 nM | 300 ± 50 nM | 400 ± 90 nM | 200 ± 80 nM | 300 ± 140 nM | 26 µM | > 60 µM | > 60 µM | > 60 µM
O=C(NO)c1ccc(Cn2cc(-c3ccc(CN4CCOCC4)cc3)nn2)cc1 [Example 9, N-Hydroxy-4-[4-(4-morpholin-4-ylmethyl-phenyl)-[1,2,3]triazol-1-ylmethyl]-benzamide] | 100% | 2700 ± 740 nM | 300 ± 74 nM | 1400 ± 310 nM | 5700 ± 1620 nM | 1200 ± 18 nM | 900 ± 201 nM | 500 ± 430 nM | 6600 nM | 300 ± 71 nM | 600 ± 160 nM | 200 ± 60 nM | 700 ± 110 nM | > 60 µM | > 60 µM | > 60 µM | > 60 µM
O=C(/C=C/c1ccc(Cn2cc(-c3ccc(CN4CCCC4)cc3)nn2)cc1)NO [Example 16, N-Hydroxy-3-{4-[4-(4-pyrrolidin-1-ylmethyl-phenyl)-[1,2,3]triazol-1-ylmethyl]-phenyl}-acrylamide] | 98% | 760 ± 660 nM | 190 ± 50 nM | 410 ± 160 nM | 3500 ± 2600 nM | 100 ± 110 nM | 250 ± 70 nM | 150 ± 50 nM | 1030 nM | 310 ± 60 nM | 230 ± 120 nM | 340 ± 33 nM | 90 ± 20 nM | 13.2 µM | > 60 µM | > 60 µM | > 60 µM
CN(C)Cc1ccc(-c2cn(Cc3ccc(/C=C/C(=O)NO)cc3)nn2)cc1 [Example 21] | 65% | 1000 ± 330 nM | 200 ± 40 nM | 400 ± 120 nM | 5500 ± 1200 nM | 200 ± 40 nM | 200 ± 40 nM | 300 ± 160 nM | 1400 nM | 400 ± 40 nM | 200 ± 80 nM | 100 nM | 100 ± 40 nM | > 60 µM | > 60 µM | > 60 µM | > 60 µM
O=C(/C=C/c1cccc(Cn2cc(-c3ccc(CN4CCOCC4)cc3)nn2)c1)NO [Example 25, N-Hydroxy-3-{3-[4-(4-morpholin-4-ylmethyl-phenyl)-[1,2,3]triazol-1-ylmethyl]-phenyl}-acrylamide hydrochloride] | 57% | 1100 ± 730 nM | 200 ± 80 nM | 600 ± 180 nM | 2100 ± 2630 nM | 200 ± 50 nM | 200 ± 20 nM | 200 ± 250 nM | 4000 nM | 200 ± 30 nM | 200 ± 20 nM | 200 ± 30 nM | 200 ± 80 nM | > 60 µM | 51.5 µM | > 60 µM | > 60 µM
